# Results published in article PMC6272279, “Carboxylated Acyclonucleosides: Synthesis and RNase A Inhibition” (Molecules, 2015).
# How the values were obtained:
# RNase A [1] = biological target: T1, RNase A (Bos taurus, UniProt P61823); test: Comparative agarose gel-based assay of RNA degradation by RNase A; type: biochemical, Bovine; conditions: inhibitor 0.5 mM, RNase A 1 µM, RNA 10 mg/mL
# T1 construct: purchased
# T1 sequence (P61823 27-150): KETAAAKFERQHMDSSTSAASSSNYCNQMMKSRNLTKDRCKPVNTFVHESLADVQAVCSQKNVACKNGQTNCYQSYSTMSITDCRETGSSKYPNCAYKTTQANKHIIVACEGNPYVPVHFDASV
# Procedure: Qualitative indication of RNase A inhibition by the synthetic inhibitors was obtained from a comparative agarose gel-based assay by monitoring the degradation of RNA by RNase A (Figure 2 and Figure 3). The most intense band observed in lane I in each gel is due to the presence of only RNA. […] These experimental observations reaffirmed our assumption that increasing the acidity of the molecules leads to an increase in the inhibitory property of the inhibitor.
# Inhibition of RNase A was assayed qualitatively by the degradation of RNA in an agarose gel. In this method, 20 μL of RNase A (1 μM) was mixed with 20 μL (0.5 mM) of compounds U-ol-ol (5), C-ol-ol (16), U-acid (3), C-acid (14), U-ol-acid (8), C-ol-acid (18), U-di-acid (10), and C-di-acid (21) separately to a final volume of 50 μL and the resulting solutions incubated for 3 h. Twenty-microliter aliquots of the incubated mixtures were then mixed with 20 μL of RNA solution (10.0 mg/mL RNA, freshly dissolved in RNase free water) and incubated for another 30 min. Then 10 μL of sample buffer (containing 10% glycerol and 0.025% bromophenol blue) were added to this mixture and 15 μL from each solution were extracted and loaded onto a 1.1% agarose gel. The gel was run using a 0.04-M Tris-Acetic acid-EDTA (TAE) buffer (pH 8.0). The residual RNA was visualized by ethidium bromide staining under UV light.
# RNase A [2] = biological target: T1, RNase A; test: Inhibition kinetics with RNase A (UV, 2',3'-cCMP substrate, Lineweaver–Burk plot); type: biochemical, Bovine; conditions: 0.1-M Mes-NaOH buffer pH 6.0, 0.1 M NaCl, substrate 2',3'-cCMP; mean ± SD; read-out: Inhibition constant Ki
# Procedure: In order to determine the type of inhibition and the inhibition constant (Ki) values, kinetic experiments were performed with compounds U-ol-acid (8), U-di-acid (10), C-ol-acid (18), and C-di-acid (21). The competitive nature of inhibition in all the cases was apparent from the nature of the Lineweaver–Burk plots obtained from the kinetic experiments (Figure 4 and Figure S1 (SI)).
# A quantitative account of RNase A inhibition by the individual inhibitors was obtained by a UV spectroscopic method described by Anderson and co-workers. The assay was performed in a 0.1-M Mes-NaOH buffer, pH 6.0 containing 0.1 M NaCl using 2',3'-cCMP as the substrate. The inhibition constants were calculated from initial velocity data using a Lineweaver–Burk plot. The slopes from the Lineweaver–Burk double reciprocal plot were plotted against the corresponding inhibitor concentrations to get inhibition constants (Ki).
# RNase A [3] = biological target: T1, RNase A; test: Circular dichroism of RNase A secondary structure with inhibitor; set-up: species or system Bovine; conditions: RNase A 30 µM mixed with inhibitor 30 µM, 3 h; native RNase A 22.7%
# Procedure: Inhibitors of RNase A are known to perturb the secondary structure of the enzyme upon binding. […] Therefore, the probable changes in the secondary structure of the enzyme by the inhibitors were monitored by observing the CD spectra of RNase A in the absence or presence of compounds U-di-acid (10) and C-di-acid (21) (Figure 5).
# Circular Dichroism (CD) was performed in order to monitor the changes in the secondary structure of the enzyme as a result of interaction with the inhibitors. In this method, 200 µL of RNase A (30 µM) were mixed separately with 200 µL of U-di-acid (10) (30 µM) and C-di-acid (21) (30 µM) and incubated for 3 h. From the resulting solutions, an aliquot of 300 µL was used for CD measurements, taking a 1 mm path length quartz cell. The spectra were recorded in the range of 190–240 nm with a scan rate of 50 nm/min. Three scans were accumulated for each spectrum. The secondary structure was determined using an online server, DICHROWEB [46].
SMILES,melting point [°C],"RNase A inhibition, relative band intensities in agarose gel (RNase A [1])",Ki (RNase A [2]) [µM],α-helix content of RNase A upon binding (RNase A [3]) [%]
"Nc1ccn(CC(=O)NCC(=O)O)c(=O)n1 [C-acid (14), [2-(4-Amino-2-oxo-2H-pyrimidin-1-yl)acetylamino] acetic acid]",> 200,,,
"Nc1ccn(CC(=O)N(CC(=O)O)CC(=O)O)c(=O)n1 [C-di-acid (21), {[2-(4-Amino-2-oxo-2H-pyrimidin-1-yl)-acetyl]carboxymethylamino}acetic acid]",190 to 193,relatively more potent inhibitors,235 ± 9,29.2
"Nc1ccn(CC(=O)N(CCO)CC(=O)O)c(=O)n1 [C-ol-acid (18), [[2-(4-Amino-2-oxo-2H-pyrimidin-1-yl)acetyl]-(2-hydroxyethyl)amino] acetic acid]",,relatively more potent inhibitors,356 ± 7,
"O=C(O)CN(CC(=O)O)C(=O)Cn1ccc(=O)[nH]c1=O [U-di-acid (10), {Carboxymethyl-[2-(2,4-dioxo-3,4-dihydro-2H-pyrimidin-1-yl)acetyl]amino}acetic acid]",118 to 120,relatively more potent inhibitors,301 ± 15,24.7
O=C(O)CN(CCO)C(=O)Cn1ccc(=O)[nH]c1=O [U-ol-acid (8)],177 to 179,relatively more potent inhibitors,454 ± 9,
